Converted amounts (≈) assume the structure as drawn.
Experiments:
[1] = tested on: BALB 3T3/H-ras; assay: Anti-tumor activity: growth inhibition of BALB 3T3 cells transformed with H-ras (Giemsa staining); assay type: cell-based; settings: Mus musculus, BALB/3T3, 72 h, read-out: IC50 BALB 3T3/H-ras Inhibitory Activity
Experimental: The anti-tumor activity was determined using BALB 3T3 cells transformed with the carcinogenic gene H-ras (hereafter referred to as BALB 3T3/H-ras).
BALB 3T3/H-ras cells were suspended in a medium comprising DME medium (manufactured by Nissui Pharmaceutical Co., Ltd.) and 10% fetal calf serum (hereafter referred to as medium A) to a concentration of 3.0×10^4 /cells ml. The cell suspension thus prepared was put into wells of a 96-well microtiter plate in an amount of 0.1 ml per well. After culturing at 37° C. for 20 hours in a CO2 -incubator, 0.1 ml each of a test solution appropriately diluted with medium A was added to each well. The cells were further cultured at 37° C. for 72 hours in the CO2 -incubator and the culture supernatant was removed. After being washed once with physiological saline, the residue was treated with 0.1 ml of methanol for 10 minutes to fix the cells. Thereafter, the cells were stained with 0.1 ml of Giemsa staining solution [Giemsa staining stock solution (Merck Art 9204; manufactured by Merck Inc.) : physiological saline=1 : 10] for 5 minutes. After the staining solution was removed, the residue was washed once with 0.2 ml of water. The pigment was extracted with 0.2 ml of 0.1 N hydrochloric acid and the absorbance at 620 nm was measured with a microplate reader. By comparing the absorbance of untreated cells with those of the cells treated with the test compound at known concentrations, the concentration of the test compound at which the growth of the cells is inhibited by 50% (IC50) was calculated.

[2] = target: Protein Kinase C; assay: Protein kinase C inhibitory activity (method of Kikkawa et al.; crude enzyme from rat brain, Histone Type II S phosphorylation); assay type: biochemical; settings: crude enzyme partially purified from rat brain; [γ-32P]ATP, 30° C., 3 minutes, pH 7.5
Experimental: Protein kinase C inhibitory activity
The protein kinase C inhibitory activity was measured by the method of Kikkawa, et al. [Journal of Biological Chemistry, 257, 13341 (1982)].
That is, 10 μl of a test solution containing a UCN-1028D derivative was added to 250 μl of a solution containing 2.5 μmoles of magnesium acetate, 50 μg of Histone Type II S (manufactured by Sigma Co., Ltd.), 20 μg of phosphatidyl serine, 0.8 μg of diolein, 25 nmoles of CaCl2, 5 μg of crude enzyme (partially purified from rat brain according to the method of Kikkawa, et al.) and 5 μmoles of Tris-hydrochloride buffer (pH 7.5), followed by incubation at 30° C. for 3 minutes. Then, phosphorylation was initiated by addition of 1.25 nmoles of [γ-^32 P]ATP (5 to 10×10^3 cpm/nmole), followed by incubation at 30° C. for 3 minutes The reaction was stopped by adding 25% trichloroacetic acid (TCA), and the reaction solution was filtered through a cellulose acetate membrane (pore size: 0.45 μm) (manufactured by Toyo Filter Paper Co., Ltd.). After the membrane was washed four times with 5% TCA, radioactivity remaining on the membrane was measured. As a control, the same procedure as above was repeated without addition of the test solution and radioactivity was likewise measured. The concentration of the test solution showing 50% inhibition as compared with the control was expressed as IC50.

| Compound | IC50 [1] [µg/mL] | IC50 Protein Kinase C Inhibitory Activity [2] [µg/mL] |
| --- | --- | --- |
| COc1c(C[C@@H](C)OC(=O)COc2ccccc2)c2c3c(C[C@@H](C)OC(=O)COc4ccccc4)c(OC)c(=O)c4c(O)cc(OC)c(c5c(OC)cc(O)c(c1=O)c52)c43 [Compound 13, 14,17-bis-O-phenyloxyacetyl UCN-1028D] | 0.03 (≈ 0.0366 µM) | 0.08 (≈ 0.0977 µM) |
| COc1c(C[C@@H](C)OC(=O)[C@@H](N)CC(C)C)c2c3c(C[C@@H](C)OC(=O)[C@@H](N)CC(C)C)c(OC)c(=O)c4c(O)cc(OC)c(c5c(OC)cc(O)c(c1=O)c52)c43 [Compound 14, 14,17-di-O-L-leucyl UCN-1028D bistrifluoroacetate] | 0.45 (≈ 0.579 µM) | 0.21 (≈ 0.27 µM) |
| CC[C@H](C)[C@H](N)C(=O)O[C@H](C)Cc1c(OC)c(=O)c2c(O)cc(OC)c3c4c(OC)cc(O)c5c(=O)c(OC)c(C[C@@H](C)OC(=O)[C@@H](N)[C@@H](C)CC)c(c1c23)c54 [Compound 15, 14,17-di-O-L-isoleucyl UCN-1028D bistrifluoroacetate] | 0.28 (≈ 0.36 µM) | 0.15 (≈ 0.193 µM) |
| COc1c(C[C@@H](C)OC(=O)[C@H](N)c2ccccc2)c2c3c(C[C@@H](C)OC(=O)[C@H](N)c4ccccc4)c(OC)c(=O)c4c(O)cc(OC)c(c5c(OC)cc(O)c(c1=O)c52)c43 [Compound 16, 14,17-di-O-D-phenylglycyl UCN-1028D bistrifluoroacetate] | 0.72 (≈ 0.881 µM) | 0.17 (≈ 0.208 µM) |
| COc1c(C[C@@H](C)OC(=O)[C@@H](N)Cc2ccccc2)c2c3c(C[C@@H](C)OC(=O)[C@@H](N)Cc4ccccc4)c(OC)c(=O)c4c(O)cc(OC)c(c5c(OC)cc(O)c(c1=O)c52)c43 [Compound 17, 14,17-di-O-L-phenylalanyl UCN-1028D bistrifluoroacetate] | 0.35 (≈ 0.414 µM) | 0.088 (≈ 0.104 µM) |
| COc1c(C[C@@H](C)OC(=O)[C@H](N)Cc2ccccc2)c2c3c(C[C@@H](C)OC(=O)[C@H](N)Cc4ccccc4)c(OC)c(=O)c4c(O)cc(OC)c(c5c(OC)cc(O)c(c1=O)c52)c43 [Compound 18, 14,17-di-O-D-phenylalanyl UCN-1028D bistrifluoroacetate] | 0.84 (≈ 0.994 µM) | 0.16 (≈ 0.189 µM) |
| CN[C@@H](Cc1ccccc1)C(=O)O[C@H](C)Cc1c(OC)c(=O)c2c(O)cc(OC)c3c4c(OC)cc(O)c5c(=O)c(OC)c(C[C@@H](C)OC(=O)[C@H](Cc6ccccc6)NC)c(c1c23)c54 [Compound 19, 14,17-bis-O-N-methyl-L-phenylalanyl UCN-1028D bistrifluoroacetate] | 0.35 (≈ 0.401 µM) | 0.1 (≈ 0.115 µM) |
| COc1c(C[C@@H](C)OC(=O)[C@@H]2CCCN2)c2c3c(C[C@@H](C)OC(=O)[C@@H]4CCCN4)c(OC)c(=O)c4c(O)cc(OC)c(c5c(OC)cc(O)c(c1=O)c52)c43 [Compound 20, 14,17-di-O-L-prolyl UCN-1028D bistrifluoroacetate] | 3.2 (≈ 4.3 µM) | 0.33 (≈ 0.443 µM) |
| COc1c(C[C@@H](C)OC(=O)CCCCCN)c2c3c(C[C@@H](C)OC(=O)CCCCCN)c(OC)c(=O)c4c(O)cc(OC)c(c5c(OC)cc(O)c(c1=O)c52)c43 [Compound 21, 14,17-bis-O-6-aminohexanoyl UCN-1028D bis-trifluoroacetate] | 2.5 (≈ 3.22 µM) | 0.08 (≈ 0.103 µM) |
| COc1c(C[C@@H](C)OC(=O)c2ccc(OC(C)=O)cc2)c2c3c(C[C@@H](C)OC(=O)c4ccc(OC(C)=O)cc4)c(OC)c(=O)c4c(O)cc(OC)c(c5c(OC)cc(O)c(c1=O)c52)c43 [Compound 24, 14,17-bis-O-p-acetoxybenzoyl UCN-1028D] | 0.048 (≈ 0.0549 µM) | 0.082 (≈ 0.0937 µM) |
| COc1c(C[C@@H](C)OC(=O)c2ccc(C#N)cc2)c2c3c(C[C@@H](C)OC(=O)c4ccc(C#N)cc4)c(OC)c(=O)c4c(O)cc(OC)c(c5c(OC)cc(O)c(c1=O)c52)c43 [Compound 25, 14,17-bis-O-p-cyanobenzoyl UCN-1028D] | 0.042 (≈ 0.0519 µM) | 0.05 (≈ 0.0618 µM) |
| COc1c(C[C@@H](C)OC(=O)c2ccc(O)cc2)c2c3c(C[C@@H](C)OC(=O)c4ccc(O)cc4)c(OC)c(=O)c4c(O)cc(OC)c(c5c(OC)cc(O)c(c1=O)c52)c43 [Compound 26, 14,17-bis-O-p-hydroxybenzoyl UCN-1028D] | 0.13 (≈ 0.164 µM) | 0.084 (≈ 0.106 µM) |
